5 compounds from US20080220444A1, “Bone Marrow Proliferation Assay” (priority 2003, published 2008) can be followed below.

Assay [1] relates to human bone marrow cells. Description: Traditional CFU-GM colony-forming assay (myelotoxicity). In kind it is cell-based. As for the experimental part: Bone marrow was enriched after ficoll hypaque density centrifugation. 1×10^5 bone marrow cells per dish, containing METHOCULT GF H4534 (1% methylcellulose, 30% FBS, 1% BSA, 10^-4 M 2-ME, 2 mM L-gln, 50 ng/mL recombinant human (rh) stem cell factor (SCF), 10 ng/mL rh granulocyte/macrophage-colony stimulating factor (GM-CSF), and 10 ng/mL rh interleukin-3 (IL-3). METHOCULT was obtained from StemCell Technologies (Vancouver, BC, Canada). Cultures were treated with various concentrations of test compounds for the entire culture period. Cultures were performed in duplicate and were incubated for ˜14 days at 37° C. in 5% CO2 and scored for colony growth (colony-forming units-granulocyte/macrophage, or CFU-GM) with a phase-contrast inverted microscope. Colonies containing >50 cells were considered positive.

Assay [2] has as its system human bone marrow cells. Briefly: Bone marrow proliferation assay (3H-thymidine uptake, cytokine-activated cells). The settings on record: Bone marrow cell; for IC50: concentration inhibiting proliferation by 50%. The class given is cell-based. As for the experimental part: Bone marrow (BM) was obtained from human donors, collected in Dulbecco's phosphate buffered saline (DPBS) containing 200 units/mL of heparin. The BM cells were then processed as described below. ROSETTESEP™ cocktail was added to the BM cells at a ratio of 50 μL of cocktail per 1 mL of cells in a test tube and the tubes were mixed well by repeated inversion. This mixture was then incubated at room temperature for approximately 20 minutes. A mixture containing PBS/2% FBS/1 mM EDTA was prepared and the BM sample was mixed in a 1:2 ratio (e.g., 10 mL marrow+20 mL PBS/2% FBS/1 mM EDTA) and gently mixed by inversion. […] Cells were counted and viability checked and cells were adjusted to 5×10^5/mL in complete medium containing the following human recombinant growth factors/cytokines at the indicated final concentrations (cytokines may be obtained from various sources; those from StemCell Technologies were used herein): • Stem Cell Factor (50 ng/mL) • GM-CSF (20 ng/mL) • IL-3 (20 ng/mL) • IL-6 (20 ng/mL) • G-CSF (20 ng/mL)
Flat-bottom microtiter tissue culture plates (96 well) were used for the assay. Cells were placed in wells so that each well contained 5×10^4 cells. Typically, cultures were performed in triplicate wells. Wells were brought to a final volume of 200 μL with either complete medium or various concentrations of test compounds, which were diluted in complete medium. Plates were covered with plastic wrap (to reduce evaporation) and placed in a humidified 5% CO2 incubator at 37° C. for 3 days.

Where [3] appears, read: CFU-GM, 336 h, CFU-GM, concentration inhibiting colony growth by 50%, linear regression, ~14 days, mean +/- spread.
The mark [4] stands for this setting: CFU-GM, 336 h, CFU-GM, concentration inhibiting colony growth by 90%, linear regression, ~14 days, mean +/- spread.
Where [5] appears, read: 72 h, Prolif., linear regression, 3 days, mean +/- spread.
Where [6] appears, read: Bone marrow cell, Colony-forming Assay, intra-assay variation, equal to the mean of the five determinations.
Where [7] appears, read: Bone marrow cell, Colony-forming Assay, intra-assay variation, individual determinations.
The mark [8] stands for this setting: 72 h, Prolif., concentration inhibiting proliferation by 90%, linear regression, 3 days, mean +/- spread, read-out: IC90.

In the case of `Cc1cn([C@H]2C[C@H](N=[N+]=[N-])[C@@H](CO)O2)c(=O)[nH]c1=O` [AZT, 3′-azido-3′-deoxythymidine], the figures for the IC50 in the assay with human bone marrow cells [1] (setting [3]) and in the assay with human bone marrow cells [2] (setting [5]) were 34500 nM and 17100 nM, respectively. Further, the IC90 came out at 387000 nM in the assay with human bone marrow cells [1] (setting [4]) and 146000 nM in the assay with human bone marrow cells [2] (72 h).
As to `COc1cccc2c1C(=O)c1c(O)c3c(c(O)c1C2=O)C[C@@](O)(C(=O)CO)C[C@@H]3O[C@H]1C[C@H](N)[C@H](O)[C@H](C)O1` [Doxorubicin, doxorubicin], the half-maximal inhibitory concentration (IC50) in the assay with human bone marrow cells [1] (setting [6]) was 29.1 nM; in the assay on human bone marrow cells [1] (setting [7]), 34.2 nM; in the assay on human bone marrow cells [1] (setting [3]), 40 nM. Moreover, the IC90 is 69.2 nM in the assay with human bone marrow cells [1] (setting [6]); 72.4 nM in the assay with human bone marrow cells [1] (setting [7]); 132 nM with human bone marrow cells [1] (setting [4]); 68 nM in the assay with human bone marrow cells [2] (setting [8]); 70.2 nM in the assay on human bone marrow cells [2] (Proliferation Assay, intra-assay variation, equal to the mean of the five determinations, read-out: IC90); 71.2 nM with human bone marrow cells [2] (Proliferation Assay, intra-assay variation, individual determinations, read-out: IC90).
`Nc1ccn([C@@H]2O[C@H](CO)[C@@H](O)C2(F)F)c(=O)n1` [Gemcitabine, gemcitabine]: the IC50 is 1.3 nM with human bone marrow cells [1] (setting [3]) and 1.2 nM in the assay with human bone marrow cells [2] (setting [5]). Also, the values for the IC90 in the assay on human bone marrow cells [1] (setting [4]) and in the assay with human bone marrow cells [2] (setting [8]) were 4.2 nM and 4.4 nM, respectively.
The like results for `CC(=O)O[C@H]1C(=O)[C@@]2(C)[C@H]([C@H](OC(=O)c3ccccc3)[C@]3(O)C[C@H](OC(=O)[C@H](O)[C@@H](NC(=O)c4ccccc4)c4ccccc4)C(C)=C1C3(C)C)[C@]1(OC(C)=O)CO[C@@H]1C[C@@H]2O` [Paclitaxel, paclitaxel] were, in that order, 3.4 nM, 1.9 nM, 6 nM and 4.9 nM.
The like results for `Nc1ccn([C@@H]2S[C@H](CO)[C@@H](O)[C@@H]2O)c(=O)n1` [Thio-ara-C, thio-ara-C] were, in that order, 40.3 nM, 75 nM, 122 nM and 301 nM.
